Measurements from patent publication US20120029187A1, “HALOALKYLSULFONANILIDE DERIVATIVE” (Nissan Chemical Industries, Ltd., priority 2009, published 2012).

How the values were obtained:
Assay type in all cases: in vivo
barnyardgrass [1] = assay: Test Example 2: herbicidal effects during the vegetation period under submerged conditions; conditions: treatment during the vegetation period under submerged conditions; dose 2.52 g/a
Method: (§1) Test on the Herbicidal Effects on Weeds During the Vegetation Period Under Submerged Conditions
(§2) Alluvial soil was put in 1/30000-are styrol cups and admixed with water so that it was submerged at a depth of 4 cm. In each cup, seeds of barnyardgrass, bulrush and ducksalad were sown together, and the cups were placed in a greenhouse at 25 to 30° C. to grow the plants. When the barnyardgrass, bulrush and ducksalad reached the 1- or 2-leaf stage, emulsifiable concentrates containing compounds of the present invention formulated in accordance with Formulation Example 2 were applied to the water surfaces at predetermined doses after diluted with water. Three weeks after the application, the herbicidal effects against various plants were determined on the same evaluation scale as in Test Example 1.
(§3) A: barnyardgrass, B: bulrush, C: ducksalad, D: large crabgrass, E: giant foxtail, F: wild oat, G: water foxtail, H: Italian ryegrass, I: velvetleaf, J: common ragweed, K: redroot pigweed, L: common lambsquater, M: posumbu knotweed, N: common chickweed, O: beadstraw, a: transplanted rice, b: corn, c: soybean, d: direct-seeded rice, e: wheat, f: sugar beet.
(§4) The doses (g/a) represents the amounts in g per 1 are (a) applied after adjustment of concentration adjustment.

ducksalad [2] = assay: as above; conditions: treatment during the vegetation period under submerged conditions; dose 2.52 g/a
Method: as §1, §2, §3, §4

bulrush [3] = assay: as above; conditions: treatment during the vegetation period under submerged conditions; dose 2.52 g/a
Method: as §1, §2, §3, §4

barnyardgrass [4] = assay: Test Example 1: herbicidal effects in preemergence treatment under submerged conditions; conditions: dose 2.52 g/a
Text: (§5) Test on the Herbicidal Effects in Preemergence Treatment on Weeds Under Submerged Conditions
(§6) Alluvial soil was put in 1/30000-are styrol cups and admixed with water so that it was submerged at a depth of 4 cm. In each cup, seeds of barnyardgrass, bulrush and ducksalad were sown together, and rice seedlings at the 2.5-leaf stage were transplanted. On the same day as the seeding, emulsifiable concentrates containing compounds of the present invention formulated in accordance with Formulation Example 2 were applied to the water surfaces at predetermined doses after diluted with water. The cups were placed in a greenhouse at 25 to 30° C. to grow the plants. Three weeks after the application, the herbicidal effects against various plants were determined on the following evaluation scale.
(§7) 5 mortality of 90% or above (nearly complete death)
(§8) 4 mortality of at least 70% and less than 90%
(§9) 3 mortality of at least 40% and less than 70%
(§10) 2 mortality of at least 20% and less than 40%
(§11) 1 mortality of at least 5% and less than 20%
(§12) 0 mortality of less than 5% (almost ineffective)
as §3, §4

ducksalad [5] = assay: as above; conditions: dose 2.52 g/a
Text: as §5, §6, §7, §8, §9, §10, §11, §12, §3, §4

bulrush [6] = assay: as above; conditions: dose 2.52 g/a
Text: as §5, §6, §7, §8, §9, §10, §11, §12, §3, §4

barnyardgrass [7] = assay: Test Example 3: herbicidal effects in soil treatment; conditions: dose 3.2 g/a
Text: (§13) Test on the Herbicidal Effects in Soil Treatment
(§14) Sterilized diluvial soil was put in plastic boxes with a length of 21 cm, a width of 13 cm and a depth of 7 cm, and seeds of barnyardgrass, large crabgrass, giant foxtail, wild oat, blackgrass, velvetleaf, common ragweed, redroot pigweed, common lambsquater, posumbu knotweed, common chickweed corn, soybean, rice, wheat and sugar beet were sown in spots and covered with an about 1.5 cm-thick soil layer. Emulsifiable concentrates containing compounds of the present invention formulated in accordance with Formulation Example 2 were uniformly applied to the soil surfaces at predetermined doses through a small sprayer after dilute with water. Three weeks after the application, the herbicidal effects against various plants were determined on the same evaluation scale as in Test Example 1.
as §3, §4

water foxtail [8] = assay: as above; conditions: dose 3.2 g/a
Text: as §13, §14, §3, §4

posumbu knotweed [9] = assay: as above; conditions: dose 3.2 g/a
Text: as §13, §14, §3, §4

common ragweed [10] = assay: as above; conditions: dose 3.2 g/a
Text: as §13, §14, §3, §4

Italian ryegrass [11] = assay: as above; conditions: dose 3.2 g/a
Text: as §13, §14, §3, §4

giant foxtail [12] = assay: as above; conditions: dose 3.2 g/a
Text: as §13, §14, §3, §4

large crabgrass [13] = assay: as above; conditions: dose 3.2 g/a
Text: as §13, §14, §3, §4

common lambsquater [14] = assay: as above; conditions: dose 3.2 g/a
Text: as §13, §14, §3, §4

common chickweed [15] = assay: as above; conditions: dose 3.2 g/a
Text: as §13, §14, §3, §4

redroot pigweed [16] = assay: as above; conditions: dose 3.2 g/a
Text: as §13, §14, §3, §4

barnyardgrass [17] = assay: Test Example 4: herbicidal effect in foliage treatment; conditions: dose 3.2 g/a, three weeks after the application
Text: (§15) Test on the Herbicidal Effect in Foliage Treatment
as §14, with “chickweed,” for “chickweed”, “The boxes were placed in a greenhouse at 25 to 30° C. to grow the plants. After 14 days, emulsifiable” for “Emulsifiable”, “foliage” for “soil surfaces”, “diluted” for “dilute”
as §3, §4

water foxtail [18] = assay: as above; conditions: dose 3.2 g/a, three weeks after the application
Text: as §15
as §14, with “chickweed,” for “chickweed”, “The boxes were placed in a greenhouse at 25 to 30° C. to grow the plants. After 14 days, emulsifiable” for “Emulsifiable”, “foliage” for “soil surfaces”, “diluted” for “dilute”
as §3, §4

posumbu knotweed [19] = assay: as above; conditions: dose 3.2 g/a, three weeks after the application
Text: as §15
as §14, with “chickweed,” for “chickweed”, “The boxes were placed in a greenhouse at 25 to 30° C. to grow the plants. After 14 days, emulsifiable” for “Emulsifiable”, “foliage” for “soil surfaces”, “diluted” for “dilute”
as §3, §4

common ragweed [20] = assay: as above; conditions: dose 3.2 g/a, three weeks after the application
Text: as §15
as §14, with “chickweed,” for “chickweed”, “The boxes were placed in a greenhouse at 25 to 30° C. to grow the plants. After 14 days, emulsifiable” for “Emulsifiable”, “foliage” for “soil surfaces”, “diluted” for “dilute”
as §3, §4

Italian ryegrass [21] = assay: as above; conditions: dose 3.2 g/a, three weeks after the application
Text: as §15
as §14, with “chickweed,” for “chickweed”, “The boxes were placed in a greenhouse at 25 to 30° C. to grow the plants. After 14 days, emulsifiable” for “Emulsifiable”, “foliage” for “soil surfaces”, “diluted” for “dilute”
as §3, §4

giant foxtail [22] = assay: as above; conditions: dose 3.2 g/a, three weeks after the application
Text: as §15
as §14, with “chickweed,” for “chickweed”, “The boxes were placed in a greenhouse at 25 to 30° C. to grow the plants. After 14 days, emulsifiable” for “Emulsifiable”, “foliage” for “soil surfaces”, “diluted” for “dilute”
as §3, §4

large crabgrass [23] = assay: as above; conditions: dose 3.2 g/a, three weeks after the application
Text: as §15
as §14, with “chickweed,” for “chickweed”, “The boxes were placed in a greenhouse at 25 to 30° C. to grow the plants. After 14 days, emulsifiable” for “Emulsifiable”, “foliage” for “soil surfaces”, “diluted” for “dilute”
as §3, §4

common lambsquater [24] = assay: as above; conditions: dose 3.2 g/a, three weeks after the application
Text: as §15
as §14, with “chickweed,” for “chickweed”, “The boxes were placed in a greenhouse at 25 to 30° C. to grow the plants. After 14 days, emulsifiable” for “Emulsifiable”, “foliage” for “soil surfaces”, “diluted” for “dilute”
as §3, §4

velvetleaf = assay: as above; conditions: dose 3.2 g/a, three weeks after the application
Text: as §15
as §14, with “chickweed,” for “chickweed”, “The boxes were placed in a greenhouse at 25 to 30° C. to grow the plants. After 14 days, emulsifiable” for “Emulsifiable”, “foliage” for “soil surfaces”, “diluted” for “dilute”
as §3, §4

common chickweed [25] = assay: as above; conditions: dose 3.2 g/a, three weeks after the application
Text: as §15
as §14, with “chickweed,” for “chickweed”, “The boxes were placed in a greenhouse at 25 to 30° C. to grow the plants. After 14 days, emulsifiable” for “Emulsifiable”, “foliage” for “soil surfaces”, “diluted” for “dilute”
as §3, §4

redroot pigweed [26] = assay: as above; conditions: dose 3.2 g/a, three weeks after the application
Text: as §15
as §14, with “chickweed,” for “chickweed”, “The boxes were placed in a greenhouse at 25 to 30° C. to grow the plants. After 14 days, emulsifiable” for “Emulsifiable”, “foliage” for “soil surfaces”, “diluted” for “dilute”
as §3, §4

beadstraw = assay: as above; conditions: dose 3.2 g/a, three weeks after the application
Text: as §15
as §14, with “chickweed,” for “chickweed”, “The boxes were placed in a greenhouse at 25 to 30° C. to grow the plants. After 14 days, emulsifiable” for “Emulsifiable”, “foliage” for “soil surfaces”, “diluted” for “dilute”
as §3, §4

transplanted rice = assay: Test Example 1: preemergence treatment under submerged conditions, effect on crop; conditions: dose 2.52 g/a
Text: as §5, §6, §7, §8, §9, §10, §11, §12, §3, §4

## CCOC(=O)N(c1ccccc1CN1OCC(C(F)(F)F)OC1=O)S(=O)(=O)C(F)(F)F (centres unmarked) [III-9]
Barnyardgrass [1]
  A: barnyardgrass, herbicidal effect (evaluation scale 0-5): 4 (mortality of at least 70% and less than 90%)
Ducksalad [2]
  C: ducksalad, herbicidal effect (evaluation scale 0-5): 4 (mortality of at least 70% and less than 90%)
Bulrush [3]
  B: bulrush, herbicidal effect (evaluation scale 0-5): 5 (mortality of 90% or above (nearly complete death))
Barnyardgrass [4]
  A: barnyardgrass, herbicidal effect (evaluation scale 0-5): 4 (mortality of at least 70% and less than 90%)
Ducksalad [5]
  C: ducksalad, herbicidal effect (evaluation scale 0-5): 0 (mortality of less than 5% (almost ineffective))
Bulrush [6]
  B: bulrush, herbicidal effect (evaluation scale 0-5): 5 (mortality of 90% or above (nearly complete death))
Barnyardgrass [7]
  herbicidal effect, A: barnyardgrass: 2 (mortality of at least 20% and less than 40%)
Water foxtail [8]
  herbicidal effect, G: water foxtail: 5 (mortality of 90% or above (nearly complete death))
Posumbu knotweed [9]
  herbicidal effect, M: posumbu knotweed: 1 (mortality of at least 5% and less than 20%)
Common ragweed [10]
  herbicidal effect, J: common ragweed: 0 (mortality of less than 5% (almost ineffective))
Italian ryegrass [11]
  herbicidal effect, H: Italian ryegrass: 0 (mortality of less than 5% (almost ineffective))
Giant foxtail [12]
  herbicidal effect, E: giant foxtail: 2 (mortality of at least 20% and less than 40%)
Large crabgrass [13]
  herbicidal effect, D: large crabgrass: 0 (mortality of less than 5% (almost ineffective))
Common lambsquater [14]
  herbicidal effect, L: common lambsquater: 3 (mortality of at least 40% and less than 70%)
Common chickweed [15]
  herbicidal effect, N: common chickweed: 1 (mortality of at least 5% and less than 20%)
Redroot pigweed [16]
  herbicidal effect, K: redroot pigweed: 0 (mortality of less than 5% (almost ineffective))
Barnyardgrass [17]
  A: barnyardgrass, herbicidal effect: 0 (mortality of less than 5% (almost ineffective))
Water foxtail [18]
  G: water foxtail, herbicidal effect: 5 (mortality of 90% or above (nearly complete death))
Posumbu knotweed [19]
  M: posumbu knotweed, herbicidal effect: 2 (mortality of at least 20% and less than 40%)
Common ragweed [20]
  J: common ragweed, herbicidal effect: 0 (mortality of less than 5% (almost ineffective))
Italian ryegrass [21]
  H: Italian ryegrass, herbicidal effect: 0 (mortality of less than 5% (almost ineffective))
Giant foxtail [22]
  E: giant foxtail, herbicidal effect: 0 (mortality of less than 5% (almost ineffective))
Large crabgrass [23]
  D: large crabgrass, herbicidal effect: 0 (mortality of less than 5% (almost ineffective))
Common lambsquater [24]
  L: common lambsquater, herbicidal effect: 2 (mortality of at least 20% and less than 40%)
velvetleaf
  I: velvetleaf, herbicidal effect: 3 (mortality of at least 40% and less than 70%)
Common chickweed [25]
  N: common chickweed, herbicidal effect: 3 (mortality of at least 40% and less than 70%)
Redroot pigweed [26]
  K: redroot pigweed, herbicidal effect: 0 (mortality of less than 5% (almost ineffective))
beadstraw
  O: beadstraw, herbicidal effect: 3 (mortality of at least 40% and less than 70%)
Transplanted rice
  a: transplanted rice, effect on crop (evaluation scale 0-5): 0 (mortality of less than 5% (almost ineffective))
